The values below come from ChEMBL document CHEMBL1155405, “Rigidified 2-aminopyrimidines as histamine H4 receptor antagonists: effects of substitution about the rigidifying ring” (Bioorg Med Chem Lett, 2010).

In data set [1] the target is Histamine H4 receptor (Rattus norvegicus) (UniProt Q91ZY1). The data set is described as follows: Antagonist activity at rat histamine H4 receptor assessed as decrease in intracellular calcium by FLIPR. Type of data set: functional, cell-based.
The target in data set [2] is T1, Histamine H4 receptor (Homo sapiens, UniProt Q9H3N8). To be noted: HEK293.
T1 sequence (Q9H3N8 whole entry): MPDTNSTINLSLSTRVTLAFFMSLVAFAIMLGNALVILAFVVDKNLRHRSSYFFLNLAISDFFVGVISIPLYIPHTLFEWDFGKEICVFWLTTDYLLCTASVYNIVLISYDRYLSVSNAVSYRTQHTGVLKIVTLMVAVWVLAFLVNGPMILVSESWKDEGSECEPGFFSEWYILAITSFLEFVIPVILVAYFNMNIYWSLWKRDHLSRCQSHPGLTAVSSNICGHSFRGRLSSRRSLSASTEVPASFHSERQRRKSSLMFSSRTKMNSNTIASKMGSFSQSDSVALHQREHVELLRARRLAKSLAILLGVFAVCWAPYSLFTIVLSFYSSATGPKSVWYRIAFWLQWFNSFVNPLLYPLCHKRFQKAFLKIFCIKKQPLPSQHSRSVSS
The target of data set [3] is T2, Histamine H4 receptor (Mus musculus) (UniProt Q91ZY2).
T2 sequence (whole entry): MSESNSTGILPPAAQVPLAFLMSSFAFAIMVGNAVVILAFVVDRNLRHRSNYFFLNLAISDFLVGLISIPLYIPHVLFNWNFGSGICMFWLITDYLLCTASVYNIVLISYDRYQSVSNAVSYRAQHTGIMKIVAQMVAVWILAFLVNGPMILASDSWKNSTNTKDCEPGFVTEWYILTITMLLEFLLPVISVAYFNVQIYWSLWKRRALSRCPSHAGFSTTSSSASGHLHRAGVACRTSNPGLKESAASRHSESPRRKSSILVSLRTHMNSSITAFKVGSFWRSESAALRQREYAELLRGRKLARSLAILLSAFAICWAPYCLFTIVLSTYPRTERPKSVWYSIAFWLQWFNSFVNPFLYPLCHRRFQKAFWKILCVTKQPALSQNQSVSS
The data set is described as follows: Antagonist activity at mouse histamine H4 receptor assessed as decrease in intracellular calcium by FLIPR. Format: functional, cell-based. (In general: Calcium assays in cells follow changes in intracellular calcium, usually with a dye or a luminescent sensor.)

The test system of another data set is Mus musculus. Put plainly: Inhibition of clobenpropit-induced scratching in hind paw of ip dosed mouse administered 30 mins before. Type of data set: functional.
Data set [4] concerns the target Histamine H3 receptor (Rattus norvegicus, UniProt Q9QYN8). The data set is described as follows: Displacement of [3H]NAMH from rat histamine H3 receptor expressed in C6 cells after 1 hr by liquid scintillation counting. Type of data set: cell-based. Background: In a radioligand displacement assay an active substance lowers the binding of a labelled ligand.
In data set [5] the target is Histamine H3 receptor (Homo sapiens, UniProt Q9Y5N1). The data set is described as follows: Displacement of [3H]NAMH from human histamine H3 receptor expressed in C6 cells after 1 hr by liquid scintillation counting. Type of data set: cell-based.
Histamine H3 receptor (Homo sapiens, UniProt Q9Y5N1), sequence (Q9Y5N1 whole entry): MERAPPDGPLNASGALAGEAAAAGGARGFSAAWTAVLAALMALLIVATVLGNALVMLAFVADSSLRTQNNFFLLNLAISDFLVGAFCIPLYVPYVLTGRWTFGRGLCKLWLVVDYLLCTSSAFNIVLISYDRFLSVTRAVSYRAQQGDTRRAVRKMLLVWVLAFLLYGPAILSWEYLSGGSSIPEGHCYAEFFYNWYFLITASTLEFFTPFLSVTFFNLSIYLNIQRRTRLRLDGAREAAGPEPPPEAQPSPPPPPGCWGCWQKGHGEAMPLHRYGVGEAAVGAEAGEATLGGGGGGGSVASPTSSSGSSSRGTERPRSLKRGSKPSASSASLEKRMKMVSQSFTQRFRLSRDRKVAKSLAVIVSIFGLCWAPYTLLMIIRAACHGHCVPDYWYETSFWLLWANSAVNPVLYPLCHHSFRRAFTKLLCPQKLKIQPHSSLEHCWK
Data set [6] addresses Histamine H4 receptor (Rattus norvegicus) (UniProt Q91ZY1). Put plainly: Antagonist activity at rat histamine H4 receptor assessed as decrease in intracellular calcium by FLIPR relative to histamine. Type of data set: functional, cell-based. On the set-up: concentration or dose not given beside the values.
Data set [7] can be described thus: Lipophilicity, log D at pH7.5. Type of data set: physicochemical. The conditions noted are these: buffer, pH 7.5.
Data set [8] has as its target T1, Histamine H4 receptor. The data set is described as follows: Displacement of [3H]-histamine from human histamine H4 receptor expressed in HEK293 cells after 1 hr by liquid scintillation counting. Type of data set: cell-based.
Data set [9] concerns the target Histamine H4 receptor (Rattus norvegicus, UniProt Q91ZY1). Put plainly: Displacement of [3H]-histamine from rat histamine H4 receptor after 1 hr by liquid scintillation counting.
The target in data set [10] is T1, Histamine H4 receptor. The data set is described as follows: Agonist activity at human histamine H4 receptor expressed in HEK293 cells coexpressing Galphaqi5 assessed as increase in intracellular calcium by FLIPR relative to histamine.

Some results are limits rather than exact numbers.

One may read the pKb as the Kb on a negative log10 scale, so that one unit is a factor of ten. By ED50 is commonly meant the dose at which the effect has come halfway, by size or by number of responders. The term Ki denotes the equilibrium dissociation constant of an inhibitor or competing ligand from its target. One may read the logD as lipophilicity at a set pH, counting ionised and neutral species.

Histamine H4 receptor (Rattus norvegicus, UniProt Q91ZY1), sequence (Q91ZY1 whole entry): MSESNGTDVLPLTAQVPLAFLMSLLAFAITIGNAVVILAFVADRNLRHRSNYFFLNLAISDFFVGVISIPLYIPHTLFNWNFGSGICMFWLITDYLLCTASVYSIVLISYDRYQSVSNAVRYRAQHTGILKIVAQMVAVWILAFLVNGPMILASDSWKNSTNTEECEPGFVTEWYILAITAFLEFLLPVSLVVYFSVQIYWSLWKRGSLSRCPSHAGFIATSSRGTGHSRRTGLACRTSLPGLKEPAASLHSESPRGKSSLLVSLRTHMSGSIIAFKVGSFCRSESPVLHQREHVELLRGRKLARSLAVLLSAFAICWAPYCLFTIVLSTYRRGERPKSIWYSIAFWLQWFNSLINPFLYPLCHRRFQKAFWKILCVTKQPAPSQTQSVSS
Histamine H4 receptor (Rattus norvegicus), sequence (Q91ZY1 whole entry): as above
Histamine H3 receptor (Rattus norvegicus, UniProt Q9QYN8), sequence (Q9QYN8 whole entry): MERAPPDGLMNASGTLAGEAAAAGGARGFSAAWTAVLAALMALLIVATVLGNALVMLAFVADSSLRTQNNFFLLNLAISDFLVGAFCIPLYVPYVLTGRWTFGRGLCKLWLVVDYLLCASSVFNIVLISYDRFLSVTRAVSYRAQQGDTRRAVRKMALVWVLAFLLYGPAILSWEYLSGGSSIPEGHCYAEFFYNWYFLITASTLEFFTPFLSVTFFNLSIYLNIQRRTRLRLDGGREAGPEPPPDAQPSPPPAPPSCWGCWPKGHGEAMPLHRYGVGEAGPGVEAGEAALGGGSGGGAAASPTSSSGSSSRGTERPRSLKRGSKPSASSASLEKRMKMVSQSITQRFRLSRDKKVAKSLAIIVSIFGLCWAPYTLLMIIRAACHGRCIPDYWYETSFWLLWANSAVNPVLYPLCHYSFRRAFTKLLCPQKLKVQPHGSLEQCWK

For `Nc1nc(N2CC[C@@H](N)C2)c2c(n1)C1(CCC2)Cc2ccccc2C1`, the results for the pKb (in [1]; at Histamine H4 receptor [2]) were 6.09 and 6.3, respectively.
As to `Nc1nc(N2CC[C@@H](N)C2)c2c(n1)C1(CCCC1)CCC2`, the pKb turned out to be 7.82 in data set [3], 6.76 in data set [1] and 8.57 on Histamine H4 receptor [2]. The same compound registered an ED50 in the data set on Mus musculus of 1 µmol/kg. For the same compound, the Ki on Histamine H3 receptor [4] was 79.4 nM; at Histamine H3 receptor [5] it was 295 nM. Moreover, the Activity in [6] came to 71%.
As to `CN1CCC(Oc2nc(N)nc3c2CCCC32CCCC2)CC1`, the results for the pKb (in data set [1]; on Histamine H4 receptor [2]) were less than 5.48 and 7.7, respectively. Moreover, the Activity in data set [6] stood at 86%.
The like results for `Nc1nc(N2C[C@H]3CCCN[C@H]3C2)c2c(n1)C1(CCCCC1)CCC2` were, in that order, 5.81, 7 and 50%.
In the case of `CN(C)CCOc1nc(N)nc2c1CCCC21CCCC1`, the pKb in [1] was less than 6; on Histamine H4 receptor [2] it was 8.11. Further, the Activity in data set [6] is 88%.
`CNC1CN(c2nc(N)nc3c2CCCCC3c2ccccc2)C1` (stereo not given): the logD in [7] was 2.05.
Turning to `CN[C@@H]1CCN(c2nc(N)nc3c2CCCC(c2ccccc2)C3)C1` (stereo not given in full), the Ki on Histamine H3 receptor [4] is 105 nM; at Histamine H3 receptor [5], 224 nM.
As for `CN1CCC(Nc2nc(N)nc3c2CCCC32CCCC2)CC1`, the figures for the pKb (in [1]; on Histamine H4 receptor [2]) were 6.9 and 7.66, respectively. Besides, the Activity in [6] was found to be 84%.
In the same order, the values of `Nc1nc(N2CCCNCC2)c2c(n1)C1(CCCC1)CCC2` are less than 5.32, 8.01 and 77%.
With `CNC1CN(c2nc(N)nc3c2CCCC32CCCC2)C1`, the Ki at Histamine H4 receptor [8] is 1.51 nM; on Histamine H3 receptor [4], 6.76 nM; at Histamine H4 receptor [9], 1.45 nM; on Histamine H3 receptor [5], 63.1 nM. The pKb in [1] came to 7.6; at Histamine H4 receptor [2], 8.34. Besides, in data set [6], the Activity turned out to be 46%. The compound further showed a logD in data set [7] of 1.6.
Consider `Nc1nc(N2CCC(N)(C(=O)O)CC2)c2c(n1)C1(CCCC1)CCC2`, for which the figures for the pKb (in data set [1]; on Histamine H4 receptor [2]) were less than 4.68 and less than 4.67, respectively.
Take `Nc1nc2c(c(N3CCNCC3)n1)CCCCC2c1ccccc1` (stereo not given): the figures for the pKb (in data set [3]; in data set [1]; on Histamine H4 receptor [2]) were 7.34, 7.26 and 7.24, respectively. The 50% effect level in the data set on Mus musculus (ED50) was put at a dose of 10 µmol/kg. Besides, the Ki on Histamine H3 receptor [4] is 661 nM; on Histamine H3 receptor [5], 2240 nM. The compound also came in with a logD in data set [7] of 1.73.
As to `Nc1nc(N2CCNCC2)c2c(n1)C1(CCCCC1)CCC2`, the pKb in data set [1] was less than 4.86; on Histamine H4 receptor [2] it was 7.32. Besides, in data set [6], the Activity was 105%.
In the same order, the values of `COC(=O)C1(N)CCN(c2nc(N)nc3c2CCCC32CCCC2)CC1` are 4.77, 4.9 and 52%.
In the same order, the values of `Nc1nc(N2CC(N)C2)c2c(n1)C1(CCCC1)CCC2` are 4.63, less than 4.16 and 48%.
Take `Nc1nc(N2CC[C@@H](N)C2)c2c(n1)C1(CCCCC1)CCC2`: the values for the pKb (in [1]; at Histamine H4 receptor [2]) were less than 4.96 and 7.33, respectively. In addition, the Activity in [6] stood at 84%.
As for `Nc1nc2c(c(N3C[C@H]4CCCN[C@H]4C3)n1)CCCCC2c1ccccc1` (stereo not given in full), the values for the pKb (in data set [3]; in data set [1]; on Histamine H4 receptor [2]) were 7.9, 8.24 and 7.88, respectively. Further, the ED50 in the data set on Mus musculus amounted to 3 µmol/kg.
Turning to `Nc1nc(N2C[C@H]3CNC[C@H]3C2)c2c(n1)C1(CCCC1)CCC2` (stereo in doubt; 34), the pKb in data set [1] turned out to be 5.65; at Histamine H4 receptor [2] it was 5.99. In addition, the Activity in data set [6] was determined as 48%.
The like results for `Nc1nc(N2C[C@H]3CNC[C@H]3C2)c2c(n1)C1(CCCC1)CCC2` (stereo in doubt; 33) were, in that order, 5.13, 5.96 and 53%.
With `CN[C@@H]1CCN(c2nc(N)nc3c2CCCC32CCCC2)C1`, the Ki on Histamine H4 receptor [8] is 2 nM; on Histamine H3 receptor [4], 72.4 nM; at Histamine H4 receptor [9], 2.63 nM; at Histamine H3 receptor [5] it was 105 nM. The pKb in data set [1] was 7.48; at Histamine H4 receptor [2], 8.54. Further, the Activity in data set [6] was 58%.
For the compound `Nc1nc2c(c(N3CC4CCCNC4C3)n1)CCCCC2c1ccccc1` (stereo not given), the Ki at Histamine H4 receptor [8] is 7.08 nM; at Histamine H4 receptor [9] it was 2.69 nM. The pKb on Histamine H4 receptor [2] is 7.59.
Turning to `Nc1nc(N2CCNCC2)c2c(n1)C1(CCC2)Cc2ccccc2C1`, the pKb in data set [1] stood at 4.86; at Histamine H4 receptor [2] it was 4.57. Also, the Activity at Histamine H4 receptor [10] is 49%; in data set [6], 135%.
In the case of `Nc1nc(N2CCNCC2)c2c(n1)C1(CCCC1)CCC2`, the values for the pKb (in data set [1]; on Histamine H4 receptor [2]) were 5.42 and 8.56, respectively. Besides, the Activity in data set [6] worked out at 87%. In data set [7], this compound showed a logD of 2.2.
With `Nc1nc(N2C[C@H]3CCCN[C@H]3C2)c2c(n1)C1(CCCC1)CCC2`, the figures for the pKb (in data set [1]; at Histamine H4 receptor [2]) were less than 6.6 and 8.07, respectively. The Activity in data set [6] came to 35%.
In the same order, the values of `Nc1nc(N2CC[C@H](N)C2)c2c(n1)C1(CCCC1)CCC2` are 6.87, 7.28 and 63%.
